Where “and” joins values, the source holds several entries; their conditions need not be identical. Equal values may be shown once. Read-outs that look alike come from different tables or passages of the source.
How the values were obtained:
A/WSN/33(H1N1) virus = assay: microbe, parasite or virus in culture; type: cell-based, influenza A virus; details: for inhibition at 100 µM: read-out: %-inhibition in viral yield reduction assay screening; for EC50: read-out: EC50 viral yield assay
in vitro = details: dog
A/HK/1/68(H3N2) = assay: microbe, parasite or virus in culture; type: cell-based; details: Influenza A virus, H3N2, read-out: EC50 viral yield reduction assay
[1] = test system: H5 PA-PB1 heterodimeric complex; type: biochemical, influenza A virus
B/Florida/04/2006 = assay: microbe, parasite or virus in culture; type: cell-based; details: Influenza B virus, read-out: EC50 viral yield reduction assay
[2] = test system: A/California/7/09(H1N1pdm); assay: microbe, parasite or virus in culture; type: cell-based; details: Influenza A virus, read-out: EC50 viral yield reduction assay
H1 polymerase = H1 polymerase (Influenza A virus, UniProt P15659); assay: cell-based; design: species or system A/WSN/33(H1N1); details: EC50 minigenome luciferase reporter assay
[3] = Influenza A virus, H1N1|WSN, MDCK

Compound | inhibition at 100 µM (A/WSN/33(H1N1) virus; [3]) [%] | CC50 (in vitro) [µM] | further results
Cc1ccccc1NCC(=O)Nc1ccccc1C(=O)NCc1cccc2cn[nH]c12 [Compound 1, N-[(1H-Indazol-7-yl)methyl]-2-[2-(o-tolylamino)acetamido]benzamide] | 25 | > 100 | 
Cc1ccc(NCC(=O)Nc2ccccc2C(=O)NCc2cccc3cn[nH]c23)cc1 [Compound 2, N-[(1H-Indazol-7-yl)methyl]-2-[2-(p-tolylamino)acetamido]benzamide] | 10.2 | > 100 | 
Cc1cccc(NCC(=O)Nc2ccccc2C(=O)NCc2cccc3cn[nH]c23)c1 [Compound 3, N-[(1H-Indazol-7-yl)methyl]-2-[2-(m-tolylamino)acetamido]benzamide] | 18.6 | > 100 | 
O=C(CNC1CCCCC1)Nc1ccccc1C(=O)NCc1cccc2cn[nH]c12 [Compound 4, N-[(1H-Indazol-7-yl)methyl]-2-[2-(cyclohexylamino)acetamido]benzamide] | < 2 | > 100 | 
O=C(CN1CCSCC1)Nc1ccccc1C(=O)NCc1cccc2cn[nH]c12 [Compound 5, N-[(1H-Indazol-7-yl)methyl]-2-[2-(thiomorpholin-4-yl)acetamido]benzamide] | < 2 | > 100 | 
O=C(CNc1ccc(Cl)cc1)Nc1ccccc1C(=O)NCc1cccc2cn[nH]c12 [Compound 6, N-[(1H-Indazol-7-yl)methyl]-2-{2-[(4-chlorophenyl)amino]acetamido}benzamide] | < 2 | > 100 | 
O=C(CNCc1ccccc1)Nc1ccccc1C(=O)NCc1cccc2cn[nH]c12 [Compound 7, N-[(1H-Indazol-7-yl)methyl]-2-[2-(benzylamino)acetamido]benzamide] | < 2 | > 50 | 
O=C(CN1CCOCC1)Nc1ccccc1C(=O)NCc1cccc2cn[nH]c12 [Compound 8, N-[(1H-Indazol-7-yl)methyl]-2-(2-morpholinoacetamido)benzamide] | < 2 | > 100 | 
O=C(/C=C/c1ccc(Br)cc1)NCc1cccc2cn[nH]c12 [Compound 9, (E)-N-[(1H-Indazol-7-yl)methyl]-3-(4-bromophenyl)acrylamide] | < 2 | > 100 | 
O=C(/C=C/c1ccc(Cl)cc1)NCc1cccc2cn[nH]c12 [Compound 10, (E)-N-[(1H-Indazol-7-yl)methyl]-3-(4-chlorophenyl)acrylamide] | < 2 | > 100 | 
O=C(/C=C/c1ccc(C(F)(F)F)cc1)NCc1cccc2cn[nH]c12 [Compound 11, (E)-N-[(1H-Indazol-7-yl)methyl]-3-[4-(trifluoromethyl)phenyl]acrylamide] | < 2 | > 100 | 
O=C(/C=C/c1ccc([N+](=O)[O-])cc1)NCc1cccc2cn[nH]c12 [Compound 12, (E)-N-[(1H-Indazol-7-yl)methyl]-3-(4-nitrophenyl)acrylamide] | 37.3 | > 100 | 
O=C(/C=C/c1ccc(F)cc1)NCc1cccc2cn[nH]c12 [Compound 13, (E)-N-[(1H-Indazol-7-yl)methyl]-3-(4-fluorophenyl)acrylamide] | 30.5 | > 100 | 
COc1ccc(/C=C/C(=O)NCc2cccc3cn[nH]c23)cc1 [Compound 14, (E)-N-[(1H-Indazol-7-yl)methyl]-3-(4-methoxyphenyl)acrylamide] | 48.4 | > 100 | 
O=C(/C=C/c1ccc(F)c(F)c1)NCc1cccc2cn[nH]c12 [Compound 15, (E)-N-[(1H-Indazol-7-yl)methyl]-3-(3,4-difluorophenyl)acrylamide] | 44.1 | > 100 | 
O=C(/C=C/c1ccncc1)NCc1cccc2cn[nH]c12 [Compound 16, (E)-N-[(1H-Indazol-7-yl)methyl]-3-(pyridin-4-yl)acrylamide] | 48.2 | > 100 | 
O=C(/C=C/c1ccco1)NCc1cccc2cn[nH]c12 [Compound 17, (E)-N-[(1H-Indazol-7-yl)methyl]-3-(furan-2-yl)acrylamide] | 33.9 | > 100 | 

Compound | inhibition at 100 µM (A/WSN/33(H1N1) virus; [3]) [%] | CC50 (in vitro) [µM] | further results
O=C(/C=C/c1cccs1)NCc1cccc2cn[nH]c12 [Compound 18, (E)-N-[(1H-Indazol-7-yl)methyl]-3-(thiophen-2-yl)acrylamide] | < 2 | > 100 | 
S=C(NCc1cccc2cn[nH]c12)Nc1ccccc1 [Compound 19, 1-[(1H-Indazol-7-yl)methyl]-3-phenylthiourea] | 25 | > 100 | 
Cc1ccc(NC(=S)NCc2cccc3cn[nH]c23)cc1 [Compound 20, 1-[(1H-Indazol-7-yl)methyl]-3-(p-tolyl)thiourea] | < 2 | > 100 | 
S=C(NCc1cccc2cn[nH]c12)Nc1cccc(Cl)c1 [Compound 21, 1-[(1H-Indazol-7-yl)methyl]-3-(3-chlorophenyl)thiourea] | 37.5 | > 25 | 
S=C(NCc1cccc2cn[nH]c12)Nc1ccc(Cl)cc1 [Compound 22, 1-[(1H-Indazol-7-yl)methyl]-3-(4-chlorophenyl)thiourea] | 16.9 | > 100 | 
S=C(NCc1cccc2cn[nH]c12)Nc1cccc(Cl)c1Cl [Compound 23, 1-[(1H-Indazol-7-yl)methyl]-3-(2,3-dichlorophenyl)thiourea] | < 2 | > 100 | 
COc1ccc(NC(=S)NCc2cccc3cn[nH]c23)cc1OC [Compound 24, 1-[(1H-Indazol-7-yl)methyl]-3-(3,4-dimethoxyphenyl)thiourea] | > 90 | > 100 | EC50 (A/HK/1/68(H3N2)): 0.54 µM; %-inhibition in viral yield reduction assay screening (A/WSN/33(H1N1) virus): 99.9%; PA-PB1 complex co-immunoprecipitated compared to DMSO control [1]: 64.5% ± 6.2% and 64.5%; EC50 (B/Florida/04/2006): 0.23 µM; EC50 [2]: 0.746 µM
S=C(NCc1cccc2cn[nH]c12)Nc1ccc(I)cc1 [Compound 25, 1-[(1H-Indazol-7-yl)methyl]-3-(4-iodophenyl)thiourea] | 74.4 | > 100 | 
FC(F)(F)Oc1ccc(NC(=S)NCc2cccc3cn[nH]c23)cc1 [Compound 26, 1-[(1H-Indazol-7-yl)methyl]-3-[4-(trifluoromethoxy)phenyl]thiourea] | < 2 | > 100 | 
FC(F)(F)c1ccc(NC(=S)NCc2cccc3cn[nH]c23)cc1 [Compound 27, 1-[(1H-Indazol-7-yl)methyl]-3-[4-(trifluoromethyl)phenyl]thiourea] | > 90 | > 100 | %-inhibition in viral yield reduction assay screening (A/WSN/33(H1N1) virus): 94.9%; selectivity index (CC50/EC50) (A/WSN/33(H1N1) virus): > 12.5; EC50 (A/WSN/33(H1N1) virus; [3]): 8.03 µM; EC50 (A/WSN/33(H1N1) virus): 8.03 µM
S=C(NCc1ccccc1)NCc1cccc2cn[nH]c12 [Compound 28, 1-[(1H-Indazol-7-yl)methyl]-3-benzylthiourea] | < 2 | > 100 | 
Fc1ccc(NC(=S)NCc2cccc3cn[nH]c23)cc1 [Compound 29, 1-[(1H-Indazol-7-yl)methyl]-3-(4-fluorophenyl)thiourea] | < 2 | > 100 | 
S=C(NCc1cccc2cn[nH]c12)Nc1ccc(Br)cc1 [Compound 30, 1-[(1H-Indazol-7-yl)methyl]-3-(4-bromophenyl)thiourea] | < 2 | > 100 | 
N#Cc1ccc(NC(=S)NCc2cccc3cn[nH]c23)cc1 [Compound 31, 1-[(1H-indazol-7-yl)methyl]-3-(4-cyanophenyl)thiourea] | > 90 | > 25 | %-inhibition in viral yield reduction assay screening (A/WSN/33(H1N1) virus): 99.9%; selectivity index (CC50/EC50) (A/WSN/33(H1N1) virus): > 1.73; EC50 (A/WSN/33(H1N1) virus; [3]): 14.6 µM; EC50 (A/WSN/33(H1N1) virus): 14.6 µM
COC(=O)OCOc1c2n(ccc1=O)N([C@@H]1c3ccccc3SCc3c1ccc(F)c3F)[C@@H]1COCCN1C2=O [baloxavir marboxil, reference compound] |  |  | EC50 (A/WSN/33(H1N1) virus): 0.00095 µM
NC(=O)c1nc(F)c[nH]c1=O [favipiravir, reference compound] |  |  | EC50 (A/WSN/33(H1N1) virus): 1.57 µM; EC50 (H1 polymerase): 0.441 µM
